Data published in paper PMC10150623 (Journal of Enzyme Inhibition and Medicinal Chemistry, 2023).
Peptide text beside a SMILES is read from it.

How the values were obtained:
BoNT/A LC (1–448 aa) = BoNT/A LC (1–448 aa) (Clostridium botulinum, UniProt P0DPI0); format: biochemical
[1] = target: Clostridium botulinum neurotoxin type A light chain (1-448 aa) (Clostridium botulinum) (UniProt P0DPI0); assay: enzyme inhibition kinetics (HPLC of substrate and products)
leg muscle paralysis = tested on: leg muscle paralysis; parameters: species or system KM mice; conditions: mouse, in vivo
[2] = in vivo; cited from earlier work
BoNT/A = conditions: cited from earlier work

Sequence of BoNT/A LC (1–448 aa) (P0DPI0 1-448 limits assumed): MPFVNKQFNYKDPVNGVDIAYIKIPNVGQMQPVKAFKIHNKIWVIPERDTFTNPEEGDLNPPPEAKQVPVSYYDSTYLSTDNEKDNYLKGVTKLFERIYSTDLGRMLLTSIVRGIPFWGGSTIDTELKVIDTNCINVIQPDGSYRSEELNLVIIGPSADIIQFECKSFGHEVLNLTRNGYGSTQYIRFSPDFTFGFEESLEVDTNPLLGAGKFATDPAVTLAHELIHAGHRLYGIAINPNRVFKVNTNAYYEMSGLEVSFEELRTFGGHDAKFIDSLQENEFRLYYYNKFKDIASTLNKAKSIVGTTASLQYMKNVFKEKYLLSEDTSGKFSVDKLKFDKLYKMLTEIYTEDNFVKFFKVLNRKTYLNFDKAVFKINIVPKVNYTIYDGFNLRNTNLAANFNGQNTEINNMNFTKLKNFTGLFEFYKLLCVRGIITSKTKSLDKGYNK
Sequence of Clostridium botulinum neurotoxin type A light chain (1-448 aa) (Clostridium botulinum) (P0DPI0 1-448): as the sequence (P0DPI0 1-448 limits assumed) above

Question: With RHGW as the molecule, how does the “inhibitory effect on BoNT/A LC proteolytic activity (SNAP-25 cleavage), in words” value (BoNT/A LC (1–448 aa)) read?
Answer: RRGW showed a better inhibitory effect on BoNT/A proteolytic activity than RRGC, RRGL and RHGW

Question: For RRGW tetrapeptide, which Ki [1] is on record?
Answer: 790 nM

Question: What does the source list for `N=C(N)NCCC[C@H](NC(=O)[C@@H](N)CCCNC(=N)N)C(=O)NCC(=O)N[C@@H](Cc1c[nH]c2ccccc12)C(=O)O` [RRGW] (H-RRGW-OH)?
Answer: cytotoxicity (cell viability) (SH-SY5Y cells): no cytotoxicity; cytotoxicity (cell viability) (Neuro-2A (N2A) cells): no cytotoxicity

Question: With “Clostridium botulinum neurotoxin type A [BoNT/A]” as the molecule, how does the “DAS (digit abduction score)” value (leg muscle paralysis) read?
Answer: 3–4

Question: And the “nonserious cases following cosmetic use” value [2]?
Answer: 995 cases

Question: What about the “nonserious cases following therapeutic use” value [2] of the same molecule?
Answer: 189 cases

Question: And the “serious cases following cosmetic use” value [2]?
Answer: 36 cases

Question: What about the “serious cases following therapeutic use” value [2] of the same molecule?
Answer: 217 cases

Question: With CRGC as the molecule, how does the “cell-based activity, in words” value (BoNT/A) read?
Answer: higher activity than RRGC in cell-based experiments

Question: With RRGL as the molecule, how does the “inhibitory effect on BoNT/A LC proteolytic activity (SNAP-25 cleavage), in words” value (BoNT/A LC (1–448 aa)) read?
Answer: RRGW showed a better inhibitory effect on BoNT/A proteolytic activity than RRGC, RRGL
